Source: patent US20160199365A1, “2-Carboxamide Cycloamino Urea Derivatives in Combination with HSP90 Inhibitors for the Treatment of Proliferative Diseases” (Novartis AG, priority 2011, published 2016)
Like-named read-outs stand apart in the source and are kept apart here.

Columns and labels:
[1] = system: HGC-27 subcutaneous xenografts; experiment: HGC-27 gastric cancer xenograft model, treatment from day 20 for 14 days (Example 2); format: in vivo, mice
Text: The procedure described in Example 1 is followed with the following modifications: Treatments are initiated on day 20 following tumor cell implantation of 5 million HCG-27 cells, when the average tumor volume is 316 mm^3 (164-485 mm^3).

[2] = system: NCI-N87 tumors (human gastric carcinoma cells); experiment: NCI-N87 gastric cancer xenograft model, second experiment (Example 3); format: in vivo, mice; details: single agent
Procedure: Cells are harvested with trypsin (0.25% w/v)-EDTA (0.53 mM), are re-suspended in culture medium (with additives) and are counted with a Casy® system. Cell culture reagents are purchased from BioConcept (Allschwil, Switzerland). NCI-N87 tumors are established by injecting […] to 1×10^7 cells (in HBSS containing 50% v/v Matrigel) subcutaneously with a 23 Gauge needle. When tumors are established and reach between 180 and 210 mm^3, animals are randomized into treatment groups and the treatments are initiated. Compound A is formulated in NMP/PEG300/Solutol HS15/water (10:30:20:40% vol/vol) The compound is fully dissolved in NMP first and water is added immediately prior to administration to animals. […] All doses of AUY922 refer to the free base equivalent. AUY922 is administered iv at a volume of 10 ml/kg, twice a week. […] Pairwise comparisons are done using a one way ANOVA followed by Tukey's test. The level of significance of body weight change within a group between start and end of the treatment period is determined using a paired t-test. […] Calculations are performed using GraphPad Prism 4 for windows (GraphPad Software Inc.). In addition, an approximation of drug interactions is made using the method described by Clarke R., “Issues in experimental design and endpoint analysis in the study of experimental cytotoxic agents in vivo in breast cancer and other models”, Breast Cancer Res. Treat, 46, 255-78 (1997). This is applied to MV (Tumor volume).

[3] = system: NCI-N87 tumors (human gastric carcinoma cells); experiment: NCI-N87 gastric cancer xenograft model, third experiment (Example 3); format: in vivo, mice; details: single agent
Procedure: Cells are harvested with trypsin (0.25% w/v)-EDTA (0.53 mM), are re-suspended in culture medium (with additives) and are counted with a Casy® system. Cell culture reagents are purchased from BioConcept (Allschwil, Switzerland). NCI-N87 tumors are established by injecting […] to 1×10^7 cells (in HBSS containing 50% v/v Matrigel) subcutaneously with a 23 Gauge needle. When tumors are established and reach between 180 and 210 mm^3, animals are randomized into treatment groups and the treatments are initiated. Compound A is formulated in NMP/PEG300/Solutol HS15/water (10:30:20:40% vol/vol) The compound is fully dissolved in NMP first and water is added immediately prior to administration to animals. […] All doses of AUY922 refer to the free base equivalent. AUY922 is administered iv at a volume of 10 ml/kg, twice a week. […] Pairwise comparisons are done using a one way ANOVA followed by Tukey's test. The level of significance of body weight change within a group between start and end of the treatment period is determined using a paired t-test. […] Calculations are performed using GraphPad Prism 4 for windows (GraphPad Software Inc.). In addition, an approximation of drug interactions is made using the method described by Clarke R., “Issues in experimental design and endpoint analysis in the study of experimental cytotoxic agents in vivo in breast cancer and other models”, Breast Cancer Res. Treat, 46, 255-78 (1997). This is applied to MV (Tumor volume). In the third efficacy experiment, the tumor model is set up as in the second experiment.

[4] = system: KYSE-70 tumors (esophageal squamous cell carcinoma cells); experiment: KYSE-70 esophageal squamous cell carcinoma xenograft model (Example 4); format: in vivo, mice
Procedure: KYSE-70 tumors are established by injecting 7.5×10^6 KYSE-70 cells, which are esophageal squamous cell carcinoma cells, in 100 μl cell suspension, with a 23 gauge needle subcutaneously on the right flank of the mice. Ten (10) days after implantation, […]. When tumors are established and reach about 156 mm^3 (minimum 86 mm^3, maximum 218 mm^3) approximately 10 days after implantation, 48 animals are selected and randomized into 6 treatment groups (n=8). Placebo control is formulated as 10 ml/kg of 250 μl NMP, 750 μl PEG300, 500 μl Solutol HS15, and 1000 μl water for delivery once daily per oral (Placebo 1) and as 10 ml/kg of 2.5 ml Glucose for delivery intravenously twice a week (Placebo 2). Compound A is formulated in NMP/PEG300/Solutol HS15/water (10:30:20:40% vol/vol). The compound is fully dissolved in NMP first and water is added immediately prior to administration to animals. […] All doses of AUY922 refer to the free base equivalent. AUY922 is administered iv at a volume of 10 ml/kg, twice a week.

[5] = system: HGC-27 subcutaneous xenografts (human gastric carcinoma cells, PIK3CA mutation, PTEN null); details: mouse, in vivo, po
Procedure: (§1) Experiments are performed in female Hsd:Athymic Nude-FoxN1^nu Nude mice approximately 8-12 weeks of age at treatment start.
(§2) HGC-27 cells, which are human gastric carcinoma cells with a PIK3CA mutation (c1624G>A, p.E542K) and PTEN null, are grown in MEM culture medium containing 1% non-essential amino acid with 10% heat-inactivated FCS, and are incubated at 37° C. in a 5% CO2 humidified atmosphere.
(§3) HGC-27 tumors are established in vivo by injection 5×10^6 cells in 200 μl (100 μl PBS+100 μl Matrigel) (Cat #354234, BD Bioscience, Bedford, Mass.) subcutaneous into the right flank of the animals. The efficacy experiments are started when the tumors reach an average size of approximately 230 mm^3 (day 12 post cell injection).
(§4) Compound A is formulated in 0.5% Methylcellulose (MC). 80 mg of Compound A is added to 16 ml of 0.5% MC, then stirred/vortexed and sonicated in water bath sonicator for 1 h to obtain 5 mg/ml homogeneous suspension. 0.5% MC is used to dilute the 5 mg/ml solution to 2.5 mg/ml and 1.25 mg/ml for dosing. Compound A or vehicle is administered orally at a volume of 10 ml/kg.
(§5) Tumor volumes are measured with calipers and determined according to the formula: length×diameter^2×π/6. Antitumor activity is expressed as T/C % which is determined according to the formula: (mean change of tumor volume of treated animals/mean change of tumor volume of control animals)×100. Regressions (%) are calculated according to the formula ((mean tumor volume at end of treatment-mean tumor volume at start of treatment)/mean tumor volume at start of treatment)×100. Body weights and tumor volumes are recorded twice a week.
(§6) Where applicable, data is presented as mean±SEM. For all tests, the level of significance is set at p<0.05. For tumor volumes, comparisons between treatment groups and vehicle control group are done using one-way ANOVA followed by Dunnett's test. Tumor volumes comparisons between treatment groups are done using Kruskal-Wallis one way ANOVA post-hoc Student Newman Kuels test or Dunn's test. In the first experiment, Compound A is orally administered daily to HGC-27 subcutaneous xenografts, tumor-bearing nude mice at a dose of 12.5 mg/kg, 25 mg/kg and 50 mg/kg.

[6] = system: HGC-27 subcutaneous xenografts (human gastric carcinoma cells, PIK3CA mutation, PTEN null); experiment: HGC-27 gastric cancer xenograft model in female athymic nude mice (Example 1); details: for T/C %: 12 days, day 23; for mean change of tumor volume: mean±SEM
Procedure: as §1, §2, §3, §4, §5, §6

[7] = Compound A 50 mg/kg orally once a day
[8] = Group 2: 12.5 mg/kg Compound A per oral once daily
[9] = Group 3: 50 mg/kg Compound A per oral once daily
[10] = Compound A 12.5 mg/kg p.o. once daily
[11] = Compound A 25 mg/kg p.o. once daily
[12] = Compound A 50 mg/kg p.o. once daily

## Cc1nc(NC(=O)N2CCC[C@H]2C(N)=O)sc1-c1ccnc(C(C)(C)C(F)(F)F)c1 [Compound A, (S)-Pyrrolidine-1,2-dicarboxylic acid 2-amide 1-({4-methyl-5-[2-(2,2,2-trifluoro-1,1-dimethyl-ethyl)-pyridin-4-yl]-thiazol-2-yl}-amide)]
[1]; Compound A 25 mg/kg q.d. p.o.
  T/C: 11%
[1]; Compound A 50 mg/kg q.d. p.o.
  T/C: 10%
[2]; Compound A 12.5 mg/kg orally once a day, not statistically significant
  T/C: 30.3%
[2]; Compound A 12.5 mg/kg
  mean change of tumor volume (mm^3±SEM): 114.9±43.9 mm^3
[2]; [7]
  regressions: 1.2%
[2]; Compound A 50 mg/kg
  mean change of tumor volume (mm^3±SEM): −2.3±15.2 mm^3
[3]; Compound A 12.5 mg/kg orally once a day
  T/C: 37.8%
[3]; Compound A 12.5 mg/kg
  mean change of tumor volume (mm^3±SEM): 73.9±17.6 mm^3
[3]; [7]
  regressions: 6.4%
[3]; Compound A 50 mg/kg
  mean change of tumor volume (mm^3±SEM): −13.3±6.7 mm^3
[4]; [8]
  T/C [%] Day 10: 100.0%
  T/C [%] Day 14: −7.1%
  T/C [%] Day 17: 74.0%
  T/C [%] Day 21: 40.6%
  T/C [%] Day 24: 47.5%
[4]; [9]
  T/C [%] Day 10: 100.0%
  T/C [%] Day 14: −49.3%
  T/C [%] Day 17: −2.7%
  T/C [%] Day 21: −40.1%
  T/C [%] Day 24: −10.9%
[5]; 12.5 mg/kg
  body weight change: 5.3±1.4%
[5]; 25 mg/kg
  body weight change: 2.2±1.1%
[5]; 50 mg/kg
  body weight change: −1.1±1.6%
[6]; [10]
  T/C %: 39.4%
  mean change of tumor volume: 515±85 mm^3
[6]; [11]
  T/C %: 35.5%
  mean change of tumor volume: 465±111 mm^3
[6]; [12]
  T/C %: 7.1%
  mean change of tumor volume: 93±77 mm^3
